Read-outs that look alike come from different tables or passages of the source.
Legend:
GCT cell lines = assay: XTT cell viability assay, GCT cell lines (pre-screen / summary); assay type: cell-based, Human; settings: first pre-screen, XTT, read-out: EC50
Procedure: (§1) The […] (XTT) assays were performed as described previously. In summary, for GCT and fibroblast cell lines 5 × 10^3 cells (3 × 10^3 for UC, PCa and RCC cell lines) per 96-well were seeded and different drug concentrations (see Additional file 2: Fig. S2, Additional file 3: Fig. S3) or corresponding solvents were added to the cells the following day. For drug details see Additional file 12: Table S2 C. Each condition was analyzed in four technical replicates and EC50 values were calculated by GraphPad Prism v8.

2102EP (EC) = assay: XTT cell viability assay, 2102EP; assay type: cell-based; settings: Homo sapiens, read-out: EC50 colour/symbol code, EC 2102EP
Procedure: as §1

JAR (CC) = assay: XTT cell viability assay, JAR; assay type: cell-based; settings: Homo sapiens, after 48 h, n = 4, read-out: EC50 colour/symbol code, CC JAR
Procedure: as §1

TCam-2 (SE) = assay: XTT cell viability assay, TCam-2; assay type: cell-based; settings: Homo sapiens, read-out: EC50 colour/symbol code, SE TCam-2
Procedure: as §1

`NC(=O)c1cccnc1` [Nicotinamide] gave an EC50 (GCT cell lines; Homo sapiens, GCT) greater than 50 µM, an EC50 (2102EP (EC); after 48 h, XTT, n = 4) greater than 50 µM and an EC50 (JAR (CC)) greater than 50 µM. It also gave an EC50 (TCam-2 (SE); after 48 h, XTT, n = 4) greater than 50 µM.

With `O=C(O)C1=CC(=C(c2ccc(O)c(C(=O)O)c2)c2ccc(O)c(C(=O)O)c2)C=CC1=O` [Aurintricarboxylic Acid] the EC50 (GCT cell lines; Homo sapiens, GCT) was greater than 50 µM, the EC50 (2102EP (EC); after 48 h, XTT, n = 4) was greater than 50 µM and the EC50 (JAR (CC)) was greater than 50 µM. The EC50 (TCam-2 (SE); after 48 h, XTT, n = 4) was greater than 50 µM.

`NC(=O)C1CCCc2c1[nH]c1ccc(Cl)cc21` (stereo not shown) [Selisistat] gave an EC50 (GCT cell lines) greater than 50 µM.

`NNCCc1ccc(NC(=O)CCCc2ccccc2)cc1` [Bizine] gave an EC50 (GCT cell lines) greater than 50 µM.

`CN(C)NC(=O)CCC(=O)O` [Daminozide] showed an EC50 (2102EP (EC); 48 h) greater than 50 µM, an EC50 (JAR (CC)) greater than 50 µM and an EC50 (TCam-2 (SE); 48 h) greater than 50 µM.

From article PMC8742467, “Therapeutical interference with the epigenetic landscape of germ cell tumors: a comparative drug study and new mechanistical insights” (Clinical Epigenetics, 2022)
